Calls of active or inactive are those of the source. The calls are words filed in the database; no cut-off is given here. Non-standard residues stand in square brackets, D forms with d. Residues, ends and D or L forms follow the SMILES beside them. Phe(4-F) = N[C@@H](Cc1ccc(F)cc1)C(=O)O

For one assay, the target named is T1, 3-hydroxy-3-methylglutaryl-coenzyme A reductase (Mesocricetus auratus, UniProt P09610).
T1 sequence (P09610 whole entry): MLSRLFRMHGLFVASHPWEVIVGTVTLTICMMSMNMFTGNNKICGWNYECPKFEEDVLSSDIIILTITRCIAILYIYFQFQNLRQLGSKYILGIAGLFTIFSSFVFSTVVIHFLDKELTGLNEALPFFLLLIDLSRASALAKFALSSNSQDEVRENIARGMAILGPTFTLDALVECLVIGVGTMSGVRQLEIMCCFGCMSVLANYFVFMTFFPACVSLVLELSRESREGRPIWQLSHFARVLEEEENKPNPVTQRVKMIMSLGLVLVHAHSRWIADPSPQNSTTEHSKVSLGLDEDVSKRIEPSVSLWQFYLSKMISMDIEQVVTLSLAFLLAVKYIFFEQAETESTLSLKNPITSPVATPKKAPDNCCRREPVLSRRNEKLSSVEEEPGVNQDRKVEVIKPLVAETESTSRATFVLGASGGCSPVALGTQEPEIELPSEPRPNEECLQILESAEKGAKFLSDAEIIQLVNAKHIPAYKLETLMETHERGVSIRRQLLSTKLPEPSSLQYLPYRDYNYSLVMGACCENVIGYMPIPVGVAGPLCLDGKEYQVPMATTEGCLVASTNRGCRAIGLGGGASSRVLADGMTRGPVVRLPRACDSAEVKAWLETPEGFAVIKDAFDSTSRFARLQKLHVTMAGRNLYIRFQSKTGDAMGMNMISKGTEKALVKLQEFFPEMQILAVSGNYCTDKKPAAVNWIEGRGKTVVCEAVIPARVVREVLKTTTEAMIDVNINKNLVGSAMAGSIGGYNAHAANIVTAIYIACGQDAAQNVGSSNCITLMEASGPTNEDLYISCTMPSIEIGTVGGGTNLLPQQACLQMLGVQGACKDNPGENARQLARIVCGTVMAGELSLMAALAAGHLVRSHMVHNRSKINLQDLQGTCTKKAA
As to the kind of experiment: (§1) Inhibition of Syrian hamster HMGR.
On to `CC(C)[C@H](NC(=O)[C@@H](N)Cc1ccccc1)C(=O)N[C@@H](C)C(=O)N[C@@H](CCC(=O)O)C(=O)O` (H-FVAE-OH), for which the IC50 was found to be 43.8 µM.
On the same count and under the same terms, the value for `CC[C@H](C)[C@H](N)C(=O)N[C@@H](C)C(=O)N[C@H](C(=O)N[C@@H](CCC(=O)O)C(=O)O)C(C)C` (H-IAVE-OH) was 75.2 µM.
The same measure, in the same setting: the result for `CC[C@H](C)[C@H](N)C(=O)N[C@@H](C)C(=O)N[C@H](C(=O)N1CCC[C@H]1C(=O)O)C(C)C` (H-IAVP-OH) reads 97.1 µM; that for `CC[C@H](C)[C@H](N)C(=O)N[C@H](C(=O)N[C@@H](C)C(=O)N[C@@H](CCC(=O)O)C(=O)O)C(C)C` (H-IVAE-OH), 44.1 µM.
The same measure, in the same setting: the result for `CC(C)C[C@H](N)C(=O)N1CCC[C@H]1C(=O)N[C@@H](Cc1ccc(O)cc1)C(=O)N1CCC[C@H]1C(=O)O` (H-LPYP-OH) reads 485 µM; that for `CC(C)[C@H](NC(=O)[C@H](C)NC(=O)[C@@H](N)Cc1ccc(O)cc1)C(=O)N[C@@H](CCC(=O)O)C(=O)O` (H-YAVE-OH), 52.6 µM; that for `CC(C)[C@H](NC(=O)[C@@H](N)Cc1ccc(O)cc1)C(=O)N[C@@H](C)C(=O)N[C@@H](CCC(=O)O)C(=O)O` (H-YVAE-OH), 41.8 µM.
Turning to `CC(C)[C@H](NC(=O)[C@@H](N)Cc1ccc(F)cc1)C(=O)N[C@@H](C)C(=O)N[C@@H](CCC(=O)O)C(=O)O` (H-[Phe(4-F)]VAE-OH), the IC50 was found to be 3.8 µM.
Same read-out and setting: the value for H-GFPDGG-OH was 1.5 µM; that for H-GFPEGG-OH was 1.7 µM.
As to H-GFPTGG-OH, the IC50 was determined as 16.9 µM.
Still for that read-out and setting: the result for H-GLPDGG-OH reads 22.3 µM.
On the same count and under the same terms, the value for H-GLPEGG-OH was 27.2 µM.
Compound H-GLPTGG-OH displayed an IC50 of 19.4 µM.
Take H-IAVPGEVA-OH: the IC50 worked out at 152 µM.

The target in the next assay is T2, 3-hydroxy-3-methylglutaryl-coenzyme A reductase (Mesocricetus auratus) (UniProt P09610).
T2 sequence (whole entry): T1 sequence (P09610 whole entry)
Described as §1.
Turning to `CC(C)[C@H](NC(=O)CN)C(=O)N[C@@H](C)C(=O)N[C@@H](CCC(=O)O)C(=O)O` (H-GVAE-OH), the outcome was inactive.
Still for that read-out and setting: the result for H-GGPTGG-OH reads “inactive”.

The values above are taken from ChEMBL document CHEMBL1143939, “Binding effect and design of a competitive inhibitory peptide for HMG-CoA reductase through modeling of an active peptide backbone” (Bioorg Med Chem, 2008).
